# According to US20030138864A1, “Method for identifying an enzyme to design anti-cancer compounds” (priority 2001, published 2003):
# Counter-ions that a name gives are not always drawn. Like-named read-outs stand apart in the source and are kept apart here.
# How the values were obtained:
# Format in all cases: cell-based
# [1] = system: CFU-GM: human bematopoietic progenitor cells; assay: Growth inhibition (cytotoxicity, WST-1) of granulocyte progenitors expanded ex vivo (CFU-GM)
# Description: (§1) The activation of the compounds is mediated by microsomal dipeptidase. The inhibitory activities of the compounds is determined against growth of the cells expressing a low level of microsomal dipeptidase, those expressing a high level of microsomal dipeptidase, and granulocyte progenitors that are expanded ex vivo. The human colon cancer cell line, HCT116 (American Type Culture Collection No. CCL-247), and granulocyte progenitors are used as the cells expressing only a low level of microsomal dipeptidase. A stable transfectant, HCT116/S5, into which the human microsomal dipeptidase cDNA (herafter called MDP) connected to the CMV promoter was transfected, is used as the cells expressing a high level of microsomal dipeptidase. The dipeptidase cDNA (Satoh et al. Biotechnol. Prog. 10 (2), 134-140 (1994)) and other references) and the cloning procedures as mentioned are known in the art. HCT116, HCT116/S5, and granulocyte porogenitors are cultured in the absence and presence of the drugs. […] The IC50 values are determined and compared among HCT116, HCT116/S5, and granulocyte porogenitors. Although time duration of the exposure of the cells to the drugs varies depending on the cells and drugs, it can be 24 hr, 96 or 168 hr.
# CD34-positive mononuclear cells derived from the human umbilical cord blood and bone marrow (Veritas Co, Tokyo, Japan, Catalog No.CB009F, ABM019F) were cultured on a confluent monolayer of MS5 (Itoh, K., et al. Reproducible establishment of hematopoietic supportive stromal cells from murine bone marrow. Exp. Hematol. 17, 145-153 (1989)). Mouse stromal cell lines in alpha MEM medium (Life Technologies, Gaithersburg, USA, Catalog No.12571-0063) supplemented with 10% (v/v) horse serum (HS) (Stem Cell Technologies, Vancouver, Canada, Catalog No. 06750), 10% (v/v) fetal bovine serum (FBS) (Stem Cell Technologies, Vancouver, Canada, Catalog No.06450), 50 ng/ml Flt3 ligand (PeproTec EC., London, UK., Catalog No. 300-19), 100 ng/ml SCF (PeproTech EC, London, UK., Catalog No. 300-07), and 50 ng/ml TPO (PeproTech EC, London, England, Catalog No. 300-18) at 37° C. under 5% CO2 in humidified air. Floating hematopoietic cells were collected and stained by monoclonal antibodies against PerCP-anti-CD34 (BD pharMingen, San Diego, USA, Catalog No.340430), PE-anti-CD13 (BD pharMingen, San Diego, USA, Catalog No. 30525X) and FlTC-anti-15(BD pharMingen, SanDiego, USA, Catalog No. PM30525X). Five microlitter of each antibody was added to a […] of cell suspension and incubated at 4° C. for 25 min. After washing with PBS containing 10% (v/v) FCS, the expression of CD antigens were detected by using FACSCalibur (Becton Dickinson, Franklin Lakes, N.J., USA) according to the FACSCalibur Traing mannual (FACStation ver1.1. Becton Dickinson, Franklin Lakes, N.J., USA.). […]
# [2] = system: HCT116: human colon cancer cell line; assay: Growth inhibition (cytotoxicity, WST-8) of HCT116 cells expressing only a low level of microsomal dipeptidase
# Description: The activation of the compounds is mediated by microsomal dipeptidase. The inhibitory activities of the compounds is determined against growth of the cells expressing a low level of microsomal dipeptidase, those expressing a high level of microsomal dipeptidase, and granulocyte progenitors that are expanded ex vivo. […] A stable transfectant, HCT116/S5, into which the human microsomal dipeptidase cDNA (herafter called MDP) connected to the CMV promoter was transfected, is used as the cells expressing a high level of microsomal dipeptidase. […] HCT116, HCT116/S5, and granulocyte porogenitors are cultured in the absence and presence of the drugs. […] The IC50 values are determined and compared among HCT116, HCT116/S5, and granulocyte porogenitors.
# Transfection of the DNA was carried out by using TransIT-LT2 (PanVera, Madison, USA, Calatog No. MIR2320) according to the manufacturer's instruction. […] The cells that grew in the presence of 1 mg/ml G418 were collected and cultivated in MaCoy5A medium.
# By using 96-multi well plates, approximately 2×10^3 cells per well of the HCT116 bearing pRC/CMV and HCT116S5 carrying pRC/CMV-MDP were cultured in 200 μl of McCoy5A medium supplemented with 10% FBS in the presence or absence of the indicated concentrations of the drugs at 37° C. under 5% CO2 in humidified air. The cells were exposed to drugs for 24 hr (taxol, camptothecins and their prodrugs) or 96 hr (DMDC and its compounds). When the drug exposure time to the cells was 24 hr, culture medium containing drugs were removed, and the cells were washed and suspended in the fresh medium without drugs and further cultured at 37° C. under 5% CO2 in humidified air for the indicated days. […] To examine the effects of drugs on granulocyte progenitors, the granulocyte progenitors, which were expanded on a monolayer of MS-5 for 7 days, were collected and washed with RPMI1640 medium. Approximately 5000 cells were suspended in 200 μl of RPMI medium supplemented with 10% FBS and 50 ng/ml of G-CSF in the presence or absence of drugs and cultured in the presence of drugs for 24 hr (taxol, camptothecins and their prodrugs) or 7 days (DMDC and its prodrug) at 37° C. under 5% CO2 in humidified air. When the exposure time of drugs to the cells was 24 hr, the drugs were removed at 24 hr after addition of drugs by washing the cells with the above medium, and the cells were further cultured for 6 days in the same medium without drugs.
# [3] = system: HCT116/S5: HCT116 transfected with the human microsomal dipeptidase cDNA; assay: Growth inhibition (cytotoxicity, WST-8) of HCT116/S5 cells expressing a high level of microsomal dipeptidase
# Description: as §1
# Transfection of the DNA was carried out by using TransIT-LT2 (PanVera, Madison, USA, Calatog No. MIR2320) according to the manufacturer's instruction. The resulting transfectants were cultivated in MaCoy5A medium (Sigma, St Louis, USA, Catalog No. M8403) supplemented with 10% (v/v) fetal bovine serum and 1 mg/ml of geneticin disulfate (Wako, Osaka, Japan, Catalog No. 535-24624). The cells that grew in the presence of 1 mg/ml G418 were collected and cultivated in MaCoy5A medium.
# By using 96-multi well plates, approximately 2×10^3 cells per well of the HCT116 bearing pRC/CMV and HCT116S5 carrying pRC/CMV-MDP were cultured in 200 μl of McCoy5A medium supplemented with 10% FBS in the presence or absence of the indicated concentrations of the drugs at 37° C. under 5% CO2 in humidified air. The cells were exposed to drugs for 24 hr (taxol, camptothecins and their prodrugs) or 96 hr (DMDC and its compounds). When the drug exposure time to the cells was 24 hr, culture medium containing drugs were removed, and the cells were washed and suspended in the fresh medium without drugs and further cultured at 37° C. under 5% CO2 in humidified air for the indicated days. Then, 10 μl of WST-8 (Cell Counting Kit-8, Wako, Osaka, Japan, Catalog No.343-07623) were added to the cultures, and the cells were further incubated at 37° C. for 1 or 2 hr. Cell growth inhibition was calculated as IC50 values according to optical densities at 450 nm and at 655 nm. To examine the effects of drugs on granulocyte progenitors, the granulocyte progenitors, which were expanded on a monolayer of MS-5 for 7 days, were collected and washed with RPMI1640 medium. Approximately 5000 cells were suspended in 200 μl of RPMI medium supplemented with 10% FBS and 50 ng/ml of G-CSF in the presence or absence of drugs and cultured in the presence of drugs for 24 hr (taxol, camptothecins and their prodrugs) or 7 days (DMDC and its prodrug) at 37° C. under 5% CO2 in humidified air. When the exposure time of drugs to the cells was 24 hr, the drugs were removed at 24 hr after addition of drugs by washing the cells with the above medium, and the cells were further cultured for 6 days in the same medium without drugs. Therafter, 20 μl of WST-1 (Roche Diagnostics, Mannheim, Germany, Catalog No. 1644807) were added to the cultures, and the cells were further incubated at 37° C. for 6 hr. Cell growth inhibition was calculated as IC50 values according to optical densities at 450 nm and at 655 nm.
# [4] = drug exposure time, 24 hr, then drug removed and cells cultured further, read-out: Cytotoxicity (IC50 in nM) HCT116
# [5] = drug exposure time, 24 hr, then drug removed and cells cultured further, read-out: Cytotoxicity (IC50 in nM) HCT116/S5
# [6] = drug exposure time, 24 hr, then cultured for 6 days without drugs, read-out: Cytotoxicity (IC50 in nM) CFU-GM
Structure (SMILES),IC50 [1] [nM],"IC50 [2, 4] [nM]","IC50 [3, 5] [nM]","IC50 [1, 6] [nM]",also measured
C=C1C(n2ccc(NC(=O)CC[C@@H](NC(=O)[C@@H](N)Cc3ccc(-c4ccccc4)cc3)C(=O)O)nc2=O)O[C@H](CO)[C@H]1O (stereo partly shown) [Example 16],,,,,"IC50 ([1]; drug exposure time, 168 hr (7 days), read-out: Cytotoxicity (IC50 in nM) CFU-GM): 2.8 nM; IC50 ([2]; drug exposure time, 96 hr, read-out: Cytotoxicity (IC50 in nM) HCT116): 1.7 nM; IC50 ([3]; drug exposure time, 96 hr, read-out: Cytotoxicity (IC50 in nM) HCT116/S5): 0.23 nM"
"C=C1C(n2ccc(NC(=O)CC[C@@H](NC(=O)[C@@H](N)Cc3ccc4ccccc4c3)C(=O)O)nc2=O)O[C@H](CO)[C@H]1O (stereo partly drawn) [Example 17, (2R)-((2S)-Amino-3-naphthalen-2-ylpropionylamino)-4-[1-((4S)-hydroxy-(5R)-hydroxymethyl-3-methylenetetrahydrofuran-2-yl)-2-oxo-1,2-dihydropyrimidin-4-ylcarbamoyl]butyric acid]",1.1,,,,IC50 [2]: 0.99 nM; IC50 [3]: 0.098 nM
"CC[C@@]1(OC(=O)CC[C@@H](NC(=O)[C@H](N)Cc2c[nH]c3ccccc23)C(=O)O)C(=O)OCc2c1cc1n(c2=O)Cc2cc3ccccc3nc2-1 [Example 31, 20-O—[(R)-tryptophyl-γ-(R)-glutamyl]-20(S)-camptothecin hydrochloride]",18200,3,,,
"CCc1c2c(nc3ccc(O)cc13)-c1cc3c(c(=O)n1C2)COC(=O)[C@@]3(CC)OC(=O)CC[C@@H](NC(=O)[C@@H](N)Cc1ccccc1)C(=O)O [Example 39, 7-ethyl-10-hydroxy-20-O—[(S)-phenylalanyl-γ-(R)-glutamyl]-20(S)-camptothecin hydrochloride]",20,23,2.8,,
"CCCCCN1C=Nc2cccc3nc4c(c1c23)Cn1c-4cc2c(c1=O)COC(=O)[C@@]2(CC)OC(=O)CC[C@H](NC(=O)[C@@H](N)Cc1c[nH]c2ccccc12)C(=O)O [Example 49-1, (9S)-9-ethyl-9-[(L)-tryptophyl-(L)-γ-glutamyloxy]-1-pentyl-1H,12H-pyrano[3″,4″:6′,7′]indolizino[1′,2′:6,5]pyrido[4,3,2-de]quinazoline-10,13(9H,15H)-dione hydrochloride]",,33,3.3,61,
"CCCCCN1C=Nc2c3c(nc4cccc1c24)-c1cc2c(c(=O)n1C3)COC(=O)[C@@]2(CC)OC(=O)CC[C@@H](NC(=O)[C@@H](N)CC1CCCCC1)C(=O)O [Example 49-2, (9S)-9-ethyl-9-[(L)-cyclohexylalanyl-(D)-γ-glutamyloxy]-1-pentyl-1H,12H-pyrano[3″,4″:6′,7′]indolizino[1′,2′:6,5]pyrido[4,3,2-de]quinazoline-10,13(9H,15H)-dione hydrochloride]",,18,2.6,31,
"CCCCCN1C=Nc2cccc3nc4c(c1c23)Cn1c-4cc2c(c1=O)COC(=O)[C@@]2(CC)OC(=O)CC[C@@H](NC(=O)[C@@H](N)Cc1ccccc1)C(=O)O [Example 49-3, (9S)-9-ethyl-9-[(L)-phenylalanyl-(D)-γ-glutamyloxy]-1-pentyl-1H,12H-pyrano[3″,4″:6′,7′]-indolizino[1′,2′:6,5]pyrido[4,3,2-de]quinazoline-10,13(9H,15H)-dione hydrochloride]",,> 50,2.9,250,
"CCCCCN1C=Nc2cccc3nc4c(c1c23)Cn1c-4cc2c(c1=O)COC(=O)[C@@]2(CC)OC(=O)CC[C@@H](NC(=O)[C@@H](N)CC(C)C)C(=O)O [Example 49-4, (9S)-9-ethyl-9-[(L)-leucyl-(D)-γ-glutamyloxy]-1-pentyl-1H,12H-pyrano[3″,4″:6′,7′]-indolizino[1′,2′:6,5]pyrido[4,3,2-de]quinazoline-10,13(9H,15H)-dione hydrochloride]",,15,2.1,,
"CCCCCN1C=Nc2c3c(nc4cccc1c24)-c1cc2c(c(=O)n1C3)COC(=O)[C@@]2(CC)OC(=O)C[C@@H](NC(=O)[C@@H](N)CC1CCCCC1)C(=O)O [Example 49-11, (9S)-9-ethyl-9-[(L)-cyclohexylalanyl-(D)-β-aspartyloxy]-1-pentyl-1H,12H-pyrano[3″,4″:6′,7′]indolizino[1′,2′:6,5]pyrido[4,3,2-de]quinazoline-10,13(9H,15H)-dione hydrochloride]",,> 50,13,120,
"CCc1c2c(nc3ccc(O)cc13)-c1cc3c(c(=O)n1C2)COC(=O)[C@]3(O)CC [SN 38, reference compound]",,3.7,2.2,1.8,
